Test results as given in PubChem BioAssay (NCI).
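Interpolation was linear, between the two tested concentrations surrounding the appropriate level; five concentrations were tested over 48 hours in 96-well plates. TGI marks complete inhibition of growth.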 Where a SMILES comes first, the peptide text is derived from it. [ ]: non-standard residue; d: D form. Ac5c = NC1(C(=O)O)CCCC1

How the values were obtained:
Test in all cases: NCI-60 cell line screen, 48 h
UACC-257 melanoma = tested on: UACC-257 melanoma
MALME-3M melanoma = tested on: MALME-3M melanoma
HCT-15 colon = tested on: HCT-15 colon
BT-549 breast = tested on: BT-549 breast
SK-MEL-2 melanoma = tested on: SK-MEL-2 melanoma
786-0 renal = tested on: 786-0 renal
HOP-92 NSCLC = tested on: HOP-92 NSCLC
NCI/ADR-RES ovarian = tested on: NCI/ADR-RES ovarian
NCI-H226 lung = tested on: NCI-H226 lung
SN12C renal = tested on: SN12C renal
KM12 colon = tested on: KM12 colon
HT29 colon = tested on: HT29 colon
MDA-N = tested on: MDA-N
OVCAR-3 ovarian = tested on: OVCAR-3 ovarian
OVCAR-5 ovarian = tested on: OVCAR-5 ovarian
T-47D breast = tested on: T-47D breast
HL-60(TB) leukemia = tested on: HL-60(TB) leukemia
UACC-62 melanoma = tested on: UACC-62 melanoma
A498 renal = tested on: A498 renal
K-562 leukemia = tested on: K-562 leukemia
SF-268 CNS = tested on: SF-268 CNS
OVCAR-4 ovarian = tested on: OVCAR-4 ovarian
CAKI-1 renal = tested on: CAKI-1 renal
M14 melanoma = tested on: M14 melanoma
EKVX NSCLC = tested on: EKVX NSCLC
HOP-62 NSCLC = tested on: HOP-62 NSCLC
CCRF-CEM leukemia = tested on: CCRF-CEM leukemia
A549 NSCLC = tested on: A549 NSCLC
COLO 205 colon = tested on: COLO 205 colon
NCI-H460 lung = tested on: NCI-H460 lung
OVCAR-8 ovarian = tested on: OVCAR-8 ovarian
SF-295 CNS = tested on: SF-295 CNS
TK-10 renal = tested on: TK-10 renal
RPMI-8226 leukemia = tested on: RPMI-8226 leukemia
PC-3 prostate = tested on: PC-3 prostate
IGROV1 ovarian = tested on: IGROV1 ovarian
SF-539 CNS = tested on: SF-539 CNS
HS 578T breast = tested on: HS 578T breast
SNB-75 CNS = tested on: SNB-75 CNS
MDA-MB-231 breast = tested on: MDA-MB-231 breast
MCF7 breast = tested on: MCF7 breast
SK-MEL-28 melanoma = tested on: SK-MEL-28 melanoma
NCI-H23 lung = tested on: NCI-H23 lung
HCT-116 colon = tested on: HCT-116 colon
MOLT-4 leukemia = tested on: MOLT-4 leukemia
SR leukemia = tested on: SR leukemia
NCI-H522 lung = tested on: NCI-H522 lung
SW-620 colon = tested on: SW-620 colon
SK-MEL-5 melanoma = tested on: SK-MEL-5 melanoma
SK-OV-3 ovarian = tested on: SK-OV-3 ovarian
MDA-MB-435 = tested on: MDA-MB-435
DU-145 prostate = tested on: DU-145 prostate
SNB-19 CNS = tested on: SNB-19 CNS
U251 CNS = tested on: U251 CNS
LOX IMVI melanoma = tested on: LOX IMVI melanoma
ACHN renal = tested on: ACHN renal
RXF 393 renal = tested on: RXF 393 renal
UO-31 renal = tested on: UO-31 renal
HCC-2998 colon = tested on: HCC-2998 colon

Measured: TGI

CC(=O)CC(=O)Nc1ccc2ccccc2c1
not listed: UO-31 renal | HCC-2998 colon
> 100 µM: all other assays above

NC1(C(=O)NC2(C(=O)O)CCCC2)CCCC1 (H-[Ac5c]-[Ac5c]-OH)
not listed: HCC-2998 colon
> 100 µM: all other assays above

CN1CCN(CCCN)CC1
not listed: HOP-92 NSCLC | NCI-H460 lung | SF-539 CNS | HCC-2998 colon
> 100 µM: all other assays above

CO[C@H]1c2cccc3cccc(c23)[C@@H]1n1[nH]c(=O)n(C(C)(C)C)c1=O
not listed: HOP-92 NSCLC | HOP-62 NSCLC | SF-295 CNS | SK-MEL-5 melanoma | ACHN renal
> 100 µM: all other assays above
